Source: PubChem BioAssay (NCI)
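Tested at 5 concentrations; 48 h exposure; 96-well plates; endpoints linearly interpolated, else capped at highest concentration. TGI is the concentration that stops growth completely.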

Columns and labels:
Experiment in all cases: inhibition of tumour cell growth, NCI panel, 48 h
[1] = tested on: SNB-19 CNS
[2] = tested on: HT29 colon
[3] = tested on: U251 CNS
[4] = tested on: SK-MEL-5 melanoma
[5] = tested on: SF-268 CNS
[6] = tested on: HOP-62 NSCLC
[7] = tested on: IGROV1 ovarian
[8] = tested on: T-47D breast
[9] = tested on: MDA-MB-231 breast
[10] = tested on: NCI-H23 lung
[11] = tested on: M14 melanoma
[12] = tested on: K-562 leukemia
[13] = tested on: SNB-75 CNS
[14] = tested on: A549 NSCLC
[15] = tested on: HS 578T breast
[16] = tested on: HL-60(TB) leukemia
[17] = tested on: EKVX NSCLC
[18] = tested on: SK-MEL-2 melanoma
[19] = tested on: HCT-116 colon
[20] = tested on: MOLT-4 leukemia
[21] = tested on: SW-620 colon
[22] = tested on: HCC-2998 colon
[23] = tested on: ACHN renal
[24] = tested on: A498 renal
[25] = tested on: CAKI-1 renal
[26] = tested on: 786-0 renal
[27] = tested on: OVCAR-3 ovarian
[28] = tested on: CCRF-CEM leukemia
[29] = tested on: PC-3 prostate
[30] = tested on: RXF 393 renal
[31] = tested on: SK-OV-3 ovarian
[32] = tested on: NCI-H226 lung
[33] = tested on: SR leukemia
[34] = tested on: SN12C renal
[35] = tested on: DU-145 prostate
[36] = tested on: OVCAR-8 ovarian
[37] = tested on: COLO 205 colon
[38] = tested on: MDA-N
[39] = tested on: MDA-MB-435
[40] = tested on: TK-10 renal
[41] = tested on: NCI/ADR-RES ovarian
[42] = tested on: OVCAR-4 ovarian
[43] = tested on: SF-295 CNS
[44] = tested on: UO-31 renal
[45] = tested on: LOX IMVI melanoma
[46] = tested on: MALME-3M melanoma
[47] = tested on: NCI-H522 lung
[48] = tested on: MCF7 breast
[49] = tested on: UACC-257 melanoma
[50] = tested on: HOP-92 NSCLC
[51] = tested on: SF-539 CNS
[52] = tested on: BT-549 breast
[53] = tested on: NCI-H460 lung
[54] = tested on: UACC-62 melanoma
[55] = tested on: KM12 colon
[56] = tested on: HCT-15 colon
[57] = tested on: RPMI-8226 leukemia
[58] = tested on: OVCAR-5 ovarian

Question: What does the source list for `COc1cc(-c2cc(-c3ccccc3)nc(-c3c(OC)ccc4c(C)cc(=O)oc34)c2)cc(OC)c1OC`?
Answer: TGI [1]: > 100 µM; TGI [2]: > 100 µM; TGI [3]: > 100 µM; TGI [4]: > 100 µM; TGI [5]: > 100 µM; TGI [6]: > 100 µM; TGI [7]: > 100 µM; TGI [8]: > 100 µM; TGI [9]: > 100 µM; TGI [10]: > 100 µM; TGI [11]: > 100 µM; TGI [12]: > 100 µM; TGI [13]: > 100 µM; TGI [14]: > 100 µM; TGI [15]: > 100 µM; TGI [16]: > 100 µM; TGI [17]: > 100 µM; TGI [18]: > 100 µM; TGI [19]: > 100 µM; TGI [20]: > 100 µM; TGI [21]: > 100 µM; TGI [22]: > 100 µM; TGI [23]: > 100 µM; TGI [24]: > 100 µM; TGI [25]: > 100 µM; TGI [26]: > 100 µM; TGI [27]: > 100 µM; TGI [28]: > 100 µM; TGI [29]: > 100 µM; TGI [30]: > 100 µM; TGI [31]: > 100 µM; TGI [32]: > 100 µM; TGI [33]: > 100 µM; TGI [34]: > 100 µM; TGI [35]: > 100 µM; TGI [36]: > 100 µM; TGI [37]: > 100 µM; TGI [38]: > 100 µM; TGI [39]: > 100 µM; TGI [40]: > 100 µM; TGI [41]: > 100 µM; TGI [42]: > 100 µM; TGI [43]: > 100 µM; TGI [44]: > 100 µM; TGI [45]: > 100 µM; TGI [46]: > 100 µM; TGI [47]: > 100 µM; TGI [48]: > 100 µM; TGI [49]: > 100 µM; TGI [50]: > 100 µM; TGI [51]: > 100 µM; TGI [52]: > 100 µM; TGI [53]: > 100 µM; TGI [54]: > 100 µM; TGI [55]: > 100 µM; TGI [56]: > 100 µM

Question: Which TGI [1] does the source give for `C(=N\NC1=NCCN1)/c1ccc(-c2cn3cc(/C=N/NC4=NCCN4)ccc3n2)cc1` here?
Answer: > 61.8 µM

Question: What about the TGI [2] of the same compound?
Answer: > 67.7 µM

Question: And the TGI [3]?
Answer: > 64.9 µM

Question: And the TGI [4]?
Answer: > 100 µM

Question: And the TGI [5]?
Answer: > 66.1 µM

Question: And the TGI [7]?
Answer: > 64.5 µM

Question: And the TGI [8]?
Answer: > 100 µM

Question: And the TGI [9]?
Answer: 34.6 µM

Question: And the TGI [10]?
Answer: > 100 µM

Question: And the TGI [11]?
Answer: > 62.6 µM

Question: And the TGI [12]?
Answer: 42.5 µM

Question: And the TGI [13]?
Answer: > 100 µM

Question: What about the TGI [14] of the same compound?
Answer: 38.1 µM

Question: What about the TGI [15] of the same compound?
Answer: > 100 µM

Question: And the TGI [16]?
Answer: 19.7 µM

Question: What about the TGI [17] of the same compound?
Answer: > 92.4 µM

Question: And the TGI [18]?
Answer: > 100 µM

Question: And the TGI [19]?
Answer: > 62.4 µM

Question: What about the TGI [20] of the same compound?
Answer: > 37.4 µM

Question: And the TGI [21]?
Answer: > 100 µM

Question: And the TGI [22]?
Answer: > 100 µM

Question: What about the TGI [57] of the same compound?
Answer: > 100 µM

Question: What about the TGI [23] of the same compound?
Answer: > 100 µM

Question: And the TGI [24]?
Answer: > 100 µM

Question: And the TGI [25]?
Answer: 49.4 µM

Question: What about the TGI [26] of the same compound?
Answer: > 66.4 µM

Question: What about the TGI [27] of the same compound?
Answer: > 67 µM

Question: What about the TGI [28] of the same compound?
Answer: 25.1 µM

Question: What about the TGI [29] of the same compound?
Answer: > 59.4 µM

Question: And the TGI [30]?
Answer: > 100 µM

Question: And the TGI [31]?
Answer: > 100 µM

Question: And the TGI [32]?
Answer: > 100 µM

Question: And the TGI [33]?
Answer: 13.5 µM

Question: And the TGI [34]?
Answer: > 63.1 µM

Question: What about the TGI [35] of the same compound?
Answer: 37.7 µM

Question: What about the TGI [36] of the same compound?
Answer: > 55 µM

Question: What about the TGI [37] of the same compound?
Answer: > 100 µM

Question: And the TGI [38]?
Answer: > 100 µM

Question: And the TGI [39]?
Answer: > 79.7 µM

Question: What about the TGI [40] of the same compound?
Answer: 56.1 µM

Question: And the TGI [41]?
Answer: > 100 µM

Question: And the TGI [42]?
Answer: > 100 µM

Question: And the TGI [43]?
Answer: > 70.1 µM

Question: What about the TGI [44] of the same compound?
Answer: 99.8 µM

Question: What about the TGI [45] of the same compound?
Answer: > 52.5 µM

Question: What about the TGI [46] of the same compound?
Answer: > 100 µM

Question: What about the TGI [47] of the same compound?
Answer: > 100 µM

Question: And the TGI [48]?
Answer: > 100 µM

Question: And the TGI [58]?
Answer: > 100 µM

Question: What about the TGI [49] of the same compound?
Answer: > 100 µM

Question: What about the TGI [50] of the same compound?
Answer: 43.2 µM

Question: What about the TGI [51] of the same compound?
Answer: > 100 µM

Question: And the TGI [52]?
Answer: 52.9 µM

Question: What about the TGI [53] of the same compound?
Answer: > 45.8 µM

Question: And the TGI [54]?
Answer: > 100 µM

Question: What about the TGI [55] of the same compound?
Answer: > 100 µM

Question: What about the TGI [56] of the same compound?
Answer: > 100 µM
